Source: patent US20110217280A1, “METHODS FOR TREATING NEUROPSYCHIATRIC CONDITIONS” (priority 2007, published 2011)

Key:
PAK1 = PAK1 (Homo sapiens, UniProt Q13153); settings: independent of GTPase activators such as Cdc42 or Rac; cited from earlier work
[1] = test system: double transgenic GFP-M/DN-DISC1 mice; assay: In vivo monitoring of dendritic spine plasticity by two photon laser scanning microscopy; settings: 1 mg/kg i.p. once per day, imaging P40 to P70
Description: In the following experiment, dendritic spine plasticity is directly monitored in vivo by two photon laser scanning microscopy (TPLSM) in double transgenic GFP-M/DN-DISC1 mice treated with a PAK activator or a placebo. Mice (C57BL/6) expressing GFP in a subset of cortical layer 5 neurons (transgenic line GFP-M described in Feng et al., 2000, Neuron 28:41-51) are crossed with DN-DISC1 C57BL/6 DN-DISC1 mice (Hikida et al (2007), Proc Natl Acad Sci USA, 104(36):14501-14506) to obtain heterozygous transgenic mice, which are then crossed to obtain homozygous double transgenic GFPM/DN-DISC1 mice used in this study.
GFP-M/DN-DISC1 animals aged 28-61 days are anesthetized using avertin ([…]; Sigma, St. Louis, Mo.). The skull is exposed, scrubbed, and cleaned with ethanol. […]
For in vivo two photon imaging, a two-photon laser scanning microscope is used as described in Majewska et al, (2000), Pflügers Arch, 441:398-408. […] Fluorescence is detected using photomultiplier tubes (HC125-02; Hamamatsu, Shizouka, Japan) in whole-field detection mode. The craniotomy over the visual cortex is initially identified under whole-field fluorescence illumination, and areas with superficial dendrites are identified using a 20×, 0.95 numerical aperture lens (IR2; Olympus Optical). […]

Sequence of PAK1 (Q13153 whole entry): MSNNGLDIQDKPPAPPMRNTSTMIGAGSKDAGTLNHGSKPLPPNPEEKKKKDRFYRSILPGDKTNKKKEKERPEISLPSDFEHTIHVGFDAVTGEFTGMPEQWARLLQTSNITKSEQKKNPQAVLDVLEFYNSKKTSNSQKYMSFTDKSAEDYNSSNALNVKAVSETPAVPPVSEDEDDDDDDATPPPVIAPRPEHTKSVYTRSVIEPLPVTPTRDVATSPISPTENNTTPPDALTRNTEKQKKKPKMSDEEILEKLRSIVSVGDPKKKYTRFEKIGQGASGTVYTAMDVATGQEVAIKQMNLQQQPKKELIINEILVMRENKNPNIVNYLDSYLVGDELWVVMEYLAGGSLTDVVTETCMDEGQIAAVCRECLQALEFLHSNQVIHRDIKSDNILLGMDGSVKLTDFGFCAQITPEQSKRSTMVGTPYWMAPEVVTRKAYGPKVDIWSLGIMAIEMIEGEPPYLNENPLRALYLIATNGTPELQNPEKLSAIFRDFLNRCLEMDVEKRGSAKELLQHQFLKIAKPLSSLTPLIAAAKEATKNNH

## CCCCCCCCCCCCCC=CC(O)C(N)CO (stereo not drawn) [sphingosine, 2-amino-4-octadecene-1,3-diol]
PAK1
  activation of PAK1: activate PAK1 independently of GTPase activators
[1]
  spine density relative to untreated control animals: increased spine density
  spine turnover relative to untreated control animals: reduced spine turnover
